From ChEMBL document CHEMBL1131687, “Dienyl diketones as anticancer agents: synthesis and biological evaluation of some aromatic derivatives” (1999)
Values after ≈ are worked out from the molar mass of the structure shown.

Tests used:
Assay type in all cases: functional
HEp-2 = test: In vitro cytotoxicity against the growth of Hep-2 cell line; details: Homo sapiens, read-out: LD50 (the source's name)
KB 3-1 = test: In vitro cytotoxicity against the growth of KB-cell line; details: Homo sapiens, read-out: LD50 (the source's name)
[1] = In vitro cytotoxicity against the growth of Colon-205 cancer cell line; details: Homo sapiens, Cancer cell lines; read-out: LD50 (the source's name)
HeLa = test: In vitro cytotoxicity against the growth of HeLa-cell line; details: Homo sapiens, read-out: LD50 (the source's name)

SMILES | CC50 (HEp-2) [µg/mL] | CC50 (KB 3-1) [µg/mL] | CC50 [1] [µg/mL] | CC50 (HeLa) [µg/mL]
CCC(=O)/C=C\C=C\C(=O)c1ccccc1 | > 10 | > 10 | 1 (≈ 4.67 µM) | > 10
CCC(=O)/C=C/C=C\C(C)=O | > 10 | > 10 | > 10 | > 10
CC(=O)/C=C\C=C\C(=O)c1ccccc1 | > 10 | 0.8 (≈ 4 µM) | 1 (≈ 4.99 µM) | > 10
CCCCCCC(=O)/C=C\C=C\C(=O)c1ccc(C(=O)OC)cc1 | > 10 | > 10 | 0.8 (≈ 2.44 µM) | > 10
CCCCCCC(=O)/C=C/C=C/C(=O)c1ccc(C(=O)OC)cc1 | > 10 | > 10 | > 10 | > 10
CCC(=O)/C=C/C=C\C(=O)CC(C)C | > 10 | > 10 | > 10 | > 10
